Results on two molecules are retold here after patent publication US11291642B2, “Dimethyl fumarate particles and pharmaceutical compositions thereof” (BIOGEN MA INC., priority 2015, dated 2022).

What all share (format): physicochemical
The nature of data set [1]: Comparison of unmilled coarse DMF versus wet-milled DMF for enteric coating in fluid bed. Particulars: for Coated crystals: enterically coated particles made from the named API; for Flow of API particle in fluid bed: fluid bed coating process; for Particle morphology: uncoated API particles. The procedure:
The enteric coated DMF is prepared using a Glatt GPCG-2 fluid bed granulator with a 6′ Wurster column. Dissolution was run with USP apparatus II by the Pharmaceutical Analytical Development Department with the following method.
DMF first de-lumped with a Frewitt Comill with screen size 1.0 mm. Then, it is mixed with silicon dioxide (Aerosil) and being fluidize in the fluid bed granulator for 5 minutes.
Eudragit L100 and triethyl citrate is used for coating an enteric layer for stomach acid protection on the DMF API particles. Samples were taken at different L100 weight gain to compare gastric protection capability.
Unmilled coarse DMF were coated according to the method of described in Example 5. Various properties of the unmilled coarse DMF and enterically coated DMF are compared with wet-milled DMF and enterically coated DMF made from wet-milled DMF.

Data set [2] in a line: Mean particle size of coarse DMF from current synthesis (method not given). As to conditions: DMF isolated from current chemical synthesis, before size reduction.
Data set [3] can be described thus: Particle morphology by Malvern Morphologi G3. As to conditions: compared to jet milled material. How it is done: As used herein, “aspect ratio” is the ratio of width divided by length of a particle. “Elongation” is defined as 1-aspect ratio. Shapes symmetrical in all axes, such as circles or squares, will tend to have an elongation close to 0, whereas needle-shaped particles will have values closer to 1. Elongation is more an indication of overall form than surface roughness. As used herein, “convexity” is a measurement of the surface roughness of a particle and is calculated by dividing the perimeter of an imaginary elastic band around the particle by the true perimeter of the particle. A smooth shape, regardless of form, has a convexity of 1 while a very ‘spiky’ or irregular object has a convexity closer to 0. As used herein, “circularity” or “high sensitivity circularity” is a measurement of the ratio of […]. A perfect circle has a circularity of 1 while a very narrow rod has a High Sensitivity (HS) Circularity close to 0. The higher the HS Circularity value the closer it is to a circle. Intuitively, circularity is a measure of irregularity or the difference from a perfect circle. […] The percentage of thicker particles can be determined using Malvern Instrument Morphologi G3. […] The intensity of light is quantified by the grey scale factor which depends on the amount of light reaching the detector. […]

A short description of data set [4]: Flow of drug product blend measured with Flodex. Particulars: blends of DMF with other excipients as in approved twice a day formulation; FIG. 1. The text has this: The y-axis indicates the aperture of cone containing the blend powder. Smaller aperture indicates better flow.
Where [5] appears, read: listed as wet-milled DMF particles.

Structures can show the parent of a compound that is named as a salt.

As for `COC(=O)/C=C/C(=O)OC` [Unmilled coarse API, dimethyl fumarate], in data set [1], the Coated crystals entry is reported as “Significant agglomeration”, the “Flow of API particle in fluid bed” value was “Uneven flow due to API plate” and the Particle morphology came to 2D plate structure. Moreover, the Coated crystals result in data set [1] (listed as unmilled coarse DMF particles) is recorded as “Significant agglomeration of the coated particles”. Moreover, the “typical mean particle size” value in data set [2] was 500-600 microns.

On to `COC(=O)/C=C/C(=O)OC` [Wet milled API, dimethyl fumarate], for which, in data set [1], the Coated crystals entry is “Isolated and small”; the “Flow of API particle in fluid bed” value is listed as “uniform flow”; the Particle morphology is listed as 3D structure. Also, in data set [1] (setting [5]), the Coated crystals result was “small coated particles with uniform size distribution”, the “Flow of API particle in fluid bed” value is reported as “desirable flowability” and the Particle morphology result is reported as “three dimensional morphology”. In addition, the “Particle size D50” value in data set [1] (uncoated API, Table 8) was “D50 = 60-100 μm”. Also, in data set [3], the “Particle shape (aspect ratio, HS circularity, convexity)” value was “slightly less elongated, more circular and less edgy”; the “Thick particles (percentage of particles with intensity <80)” value is “contained more thick particles”. Moreover, the “Powder flow of drug product blend” value in data set [4] is “improvement in powder flow”.
